Reference: patent publication US12304912B2, “Fused bicyclic RAF inhibitors and methods for use thereof” (Jazz Pharmaceuticals Ireland Limited, priority 2020, dated 2025)
Converted amounts (≈) assume the structure as drawn. Where two headings read alike, the source gives them in different places.

How the values were obtained:
[1] = Plasma protein binding assay, mouse plasma (mPPB); assay type: in vitro ADME; settings: 5 μM
Procedure: (§1) Plasma Protein Binding Assay The plasma protein binding was determined by the equilibrium dialysis method. A known concentration of compound (5 μM) in previously frozen human or mouse plasma (Sera Labs) was dialysed against phosphate buffer using a RED device (Life Technologies) for 4 hours at 37° C. The concentration of compound in the protein containing (PC) and protein free (PF) sides of the dialysis membrane were determined by LC-MS/MS and the % free compound was determined by equation 4. Data analysis was performed using Excel (Microsoft, USA). % free=(1−((PC−PF)/PC))×100 (4) hPPB (human plasma protein binding) and mPPB (mouse plasma protein binding) results are described in Tables 1-2.

[2] = Microsomal stability assay, mouse liver microsomes (MLM); assay type: in vitro ADME; settings: 0.5 mg/mL protein, 1 μM substrate
Procedure: (§2) Microsomal Stability Assay
(§3) The stability studies were performed manually using the substrate depletion approach. Test compounds were incubated at 37° C. with cryo-preserved mouse or human liver microsomes (Corning) at a protein concentration of 0.5 mg·mL^−1 and a final substrate concentration of 1 μM. Aliquots were removed from the incubation at defined timepoints and the reaction was terminated by adding to ice-cold organic solvent. Compound concentrations were determined by LC-MS/MS analysis. The natural log of the percentage of compound remaining was plotted against each time point and the slope determined. The half-life (t1/2) and CLint were calculated using Equations 1 and 2, respectively.
(§4) HLM (human liver microsomes) and MLM (mouse liver microsomes) stability assay results are described in Tables 1-2.

[3] = Microsomal stability assay, human liver microsomes (HLM); assay type: in vitro ADME; settings: 0.5 mg/mL protein, 1 μM substrate
Procedure: as §2, §3, §4

[4] = test system: constitutive ERK phosphorylation in HCT-116 cells; test: HCT-116 AlphaLISA SureFire pERK1/2 cellular assay; assay type: cell-based, human; settings: Homo sapiens, HCT-116; HCT116 cells, 2 hr, Abs; read-out: pERK HCT116 (2 hr) Abs pIC50 (converted)
Procedure: HCT-116 AlphaLISA SureFire pERK1/2 Cellular Assay […] […] Assay read outs took place 2 or 24 hours after dosing with compounds. On the first day, HCT-116 cells were harvested, resuspended in growth medium (McCoys5A with Glutamax (Life Technologies 36600021) and 10% heat-inactivated fetal bovine serum (Sigma F9665)), and counted. Cells were plated in 100 μl per well in each well of a 96-well culture dish (Sigma CLS3598) to a final density of 30,000 (2 hr read) or 15,000 (24 hr read) cells per well and incubated over night at 37° C. and 5% CO2. On day 2, the growth medium was exchanged for dosing medium (McCoys5A with Glutamax (Life Technologies 36600021) and 1% heat-inactivated fetal bovine serum (Sigma F9665)) and the cells were dosed with compounds to produce a 10-point dose response, where the top concentration was 1 μM and subsequent concentrations were at 1/3 log dilution intervals. A matched DMSO control was included. The cells were subsequently incubated for either 2 or 24 hours at 37° C. and 5% CO2. After incubation, media was removed and the cells were incubated with lysis buffer containing phosphatase inhibitors for 15 minutes at room temperature. Cell lysates were transferred to a 12 area 96 well white Optiplate™ (Perkin Elmer 6005569) and incubated with anti-mouse IgG acceptor beads, a biotinylated anti-ERK1/2 rabbit antibody recognizing both phosphorylated and non-phosphorylated ERK1/2, a mouse antibody targeted to the Thr202/Tyr204 epitope and recognizing phosphorylated ERK proteins only, and streptavidin-coated donor beads. The biotinylated antibody binds to the streptavidin-coated donor beads and the phopsho-ERK1/2 antibody binds to the acceptor beads. […] Both antibodies bound to phosphorylated ERK proteins, bringing the donor and acceptor beads into close proximity. All data were analyzed using the Dotmatics or GraphPad Prism software packages. Inhibition of ERK phosphorylation was assessed by determination of the absolute IC50 value, which is defined as the concentration of compound required to decrease the level of phosphorylated ERK proteins by 50% when compared to DMSO control.

[5] = Plasma protein binding assay, human plasma (hPPB); assay type: in vitro ADME; settings: 5 μM
Procedure: as §1

[6] = FeSSIF solubility assay; assay type: physicochemical; settings: fed state simulated intestinal fluid (FeSSIF), thermodynamic from solid, pH 5 acetate buffer, 37° C., read-out: FESSIF Sol
Procedure: FeSSIF Solubility Assay 1 mL of fed state simulated intestinal fluid (FeSSIF), prepared using FaSSIF/FeSSIF/FaSSGF powder (Biorelevant.com) and pH 5 acetate buffer, was added to 1.0 mg of compound and then incubated for 24 h (Bioshake iQ, 650 rpm, 37° C.). Following filtration under positive pressure, the concentration of compound in solution was assessed by LC-UV in comparison to the response for a calibration standard of known concentration (250 μM). FeSSIF solubility results are described in Tables 1-2.

[7] = test system: BRAF monomers in A375 cells; test: A375 AlphaLISA SureFire pERK1/2 cellular assay (monomer); assay type: cell-based; settings: Homo sapiens, A-375; A375 cells, 1 hr; read-out: pERK A375 (1 hr) pIC50 (converted)
Procedure: (§5) The human HCT-116 colorectal carcinoma cell line (ATCC CCL-247) endogenously expresses the KRAS^G13D mutation, which leads to constitutive activation of the MAP kinase pathway and phosphorylation of ERK. […] Assay read outs took place 2 or 24 hours after dosing with compounds. On the first day, HCT-116 cells were harvested, resuspended in growth medium (McCoys5A with Glutamax (Life Technologies 36600021) and 10% heat-inactivated fetal bovine serum (Sigma F9665)), and counted. Cells were plated in 100 μl per well in each well of a 96-well culture dish (Sigma CLS3598) to a final density of 30,000 (2 hr read) or 15,000 (24 hr read) cells per well and incubated over night at 37° C. and 5% CO2. On day 2, the growth medium was exchanged for dosing medium (McCoys5A with Glutamax (Life Technologies 36600021) and 1% heat-inactivated fetal bovine serum (Sigma F9665)) and the cells were dosed with compounds to produce a 10-point dose response, where the top concentration was 1 μM and subsequent concentrations were at 1/3 log dilution intervals. A matched DMSO control was included. The cells were subsequently incubated for either 2 or 24 hours at 37° C. and 5% CO2. After incubation, media was removed and the cells were incubated with lysis buffer containing phosphatase inhibitors for 15 minutes at room temperature. Cell lysates were transferred to a 12 area 96 well white Optiplate™ (Perkin Elmer 6005569) and incubated with anti-mouse IgG acceptor beads, a biotinylated anti-ERK1/2 rabbit antibody recognizing both phosphorylated and non-phosphorylated ERK1/2, a mouse antibody targeted to the Thr202/Tyr204 epitope and recognizing phosphorylated ERK proteins only, and streptavidin-coated donor beads. The biotinylated antibody binds to the streptavidin-coated donor beads and the phopsho-ERK1/2 antibody binds to the acceptor beads. Plates were read on an EnVision reader (Perkin Elmer) and excitation of the beads at 680 nm with a laser induced the release of singlet oxygen molecules from the donor beads that trigger energy transfer to the acceptor beads in close proximity, producing a signal that can be measured at […]. Both antibodies bound to phosphorylated ERK proteins, bringing the donor and acceptor beads into close proximity. All data were analyzed using the Dotmatics or GraphPad Prism software packages. Inhibition of ERK phosphorylation was assessed by determination of the absolute IC50 value, which is defined as the concentration of compound required to decrease the level of phosphorylated ERK proteins by 50% when compared to DMSO control.
A375 AlphaLISA SureFire pERK1/2 Cellular Assay (Monomer)
The human A375 melanoma cell line (ATCC CRL-1619) endogenously expresses the BRAF^V600E mutation, which leads to constitutive activation of the MAP kinase pathway and phosphorylation of ERK. In BRAF^V600E mutant tumours, BRAF signals as a monomer to activate ERK. To determine whether compounds can inhibit BRAF monomers in A375 cells, they were tested using AlphaLISA® SureFire® technology (Perkin Elmer p-ERK1/2 p-T202/Y204 assay kit ALSU-PERK-A10K). The main procedure is essentially the same as described above for HCT-116 cells, with the following adjustments: The A375 cells were cultivated and dosed in Dulbecco's modified Eagle's medium containing 4.5 g/L D-glucose (Sigma D6546), 10% heat-inactivated fetal bovine serum (Sigma F9665), and 1% Sodium-Pyruvate (Sigma S8636), and seeded with a seeding density of 30,000 cells per well. No media exchange was performed before dosing with compounds to produce a 10-point dose response, where the top concentration was 10 μM and subsequent concentrations were at 1/2 log dilution intervals. Subsequently, the cells were incubated for 1 hour at 37° C. and 5% CO2 before lysis.

[8] = test system: RAF dimers in HCT-116 cells; test: HCT-116 AlphaLISA SureFire pERK1/2 cellular assay (dimer); assay type: cell-based; settings: Homo sapiens, HCT-116, 1 hr
Procedure: as §5
HCT-116 AlphaLISA SureFire pERK1/2 Cellular Assay (Dimer)
The human HCT-116 colorectal carcinoma cell line (ATCC CCL-247) endogenously expresses the KRAS^G13D mutation, which leads to constitutive activation of the MAP kinase pathway and phosphorylation of ERK. First generation RAF inhibitors can promote RAF dimer formation in KRAS mutant tumours leading to a paradoxical activation of the pathway. To determine whether compounds can circumvent this problem and inhibit RAF dimers in HCT-116 cells, they were tested using AlphaLISA® SureFire® technology (Perkin Elmer p-ERK1/2 p-T202/Y204 assay kit ALSU-PERK-A10K). The main procedure is essentially the same as described above, with the following adjustments: Cells were seeded with the seeding density of 30,000 cells per well. On the second day (the day of dosing) no medium change was performed and the cells were dosed with 1 μM of Encorafenib for 1 hour (at 37° C. and 5% CO2) to induce RAF dimers and promote paradoxical dimer-dependent pERK signalling. After incubation, the cells were washed, 100 μl fresh growth medium was added, and cells were dosed with compounds of interest to produce a 10-point dose response, where the top concentration was 10 μM and subsequent concentrations are at 1/2 log dilution intervals. Cells were incubated for another hour at 37° C. and 5% CO2 before lysis and processing with the pERK AlphaLISA® SureFire® kit as described above. […]

[9] = equilibrium dialysis 4 hours at 37° C.
[10] = equilibrium dialysis 4 hours 37° C.
[11] = HCT116 cells pre-dosed with 1 μM Encorafenib, read-out: pERK HCT116 dimer (1 hr) pIC50 (converted)

Row | Structure (SMILES) | IC50 [4] | solubility thermodynamic at 24 h [6] | IC50 [7] | mPPB (% free) [1, 10] | microsomal CLint at 1 μM [2] | microsomal CLint at 1 μM [3] | hPPB (% free) [5, 10] | also measured
1 | O=C(NC1CC1)c1cc(Oc2ccc3c(c2)CC(c2nc(-c4ccccc4)c[nH]2)CO3)ccn1 (stereo not drawn) [Compound 158, N-cyclopropyl-4-[3-(4-phenyl-1H-imidazol-2-yl)chroman-6-yl]oxy-pyridine-2-carboxamide] | 0.741 µM | – | – | – | – | – | – | mPPB (% free) [1, 9]: 0.2 % free; microsomal CLint at 1 μM ([2]; 37° C.): 62.8 µL/min/mg; microsomal CLint at 1 μM ([3]; 37° C.): 21.3 µL/min/mg; hPPB (% free) [5, 9]: 0.3 % free
2 | c1ccc(-c2c[nH]c(C3COc4ccc(Oc5ccnc(NC6CCC6)c5)cc4C3)n2)cc1 (stereo not drawn) [Compound 142, N-cyclobutyl-4-[3-(4-phenyl-1H-imidazol-2-yl)chroman-6-yl]oxy-pyridin-2-amine] | > 1 µM | 135 µg/mL (≈ 309 µM) | – | – | – | – | – | –
3 | Cn1cc(-c2c[nH]c(C3COc4ccc(Oc5ccnc6c5CCC(=O)N6)cc4C3)n2)cn1 (stereo not drawn) [Compound 108, 5-[3-[4-(1-methylpyrazol-4-yl)-1H-imidazol-2-yl]chroman-6-yl]oxy-3,4-dihydro-1H-1,8-naphthyridin-2-one] | > 1 µM | – | 6.31 µM | – | – | – | – | IC50 ([8]; HCT116 cells, dimer, read-out: pERK HCT116 dimer (1 hr) plC50 (converted)): 0.389 µM
4 | O=C1CCc2c(Oc3ccc4c(c3)CC(c3nc(-c5ccccc5F)c[nH]3)CO4)ccnc2N1 (stereo not drawn) [Compound 3, 5-[3-[4-(2-fluorophenyl)-1H-imidazol-2-yl]chroman-6-yl]oxy-3,4-dihydro-1H-1,8-naphthyridin-2-one] | – | – | 0.0437 µM | 0.5 % free | 34.4 µL/min/mg | 30.3 µL/min/mg | 0.2 % free | IC50 [8, 11]: 0.112 µM
5 | c1ccc(-c2c[nH]c(C3COc4ccc(Oc5ccnc(Nc6nccs6)c5)cc4C3)n2)cc1 (stereo not drawn) [Compound 141] | > 1 µM | – | – | – | – | – | – | mPPB (% free) [1, 9]: 0.5 % free; microsomal CLint at 1 μM ([2]; 37° C.): 21.8 µL/min/mg; microsomal CLint at 1 μM ([3]; 37° C.): 1 µL/min/mg; hPPB (% free) [5, 9]: <0.1 % free
6 | CN1CCN(Cc2cc(C(F)(F)F)c3nc(C4COc5ccc(Oc6ccnc7c6CCC(=O)N7)cc5C4)[nH]c3c2)CC1 (stereo not drawn) [Compound 28] | – | – | 1.82 µM | 0.5 % free | 31.1 µL/min/mg | 68.1 µL/min/mg | 0.1 % free | –
7 | COc1ncc(-c2c[nH]c(C3COc4ccc(Oc5ccnc6c5CCC(=O)N6)cc4C3)n2)c(OC)n1 (stereo not drawn) [Compound 18, 5-[3-[4-(2,4-dimethoxypyrimidin-5-yl)-1H-imidazol-2-yl]chroman-6-yl]oxy-3,4-dihydro-1H-1,8-naphthyridin-2-one] | – | – | 10 µM | 2.5 % free | 32.9 µL/min/mg | 71.1 µL/min/mg | 1.2 % free | IC50 [8, 11]: 3.63 µM

Further lines, with some results ahead:

Row | IC50 [4] | solubility thermodynamic at 24 h [6] | Structure (SMILES) | IC50 [7] | mPPB (% free) [1, 10] | microsomal CLint at 1 μM [2] | microsomal CLint at 1 μM [3] | hPPB (% free) [5, 10] | also measured
8 | > 1 µM | 661 µg/mL (≈ 1440 µM) | CC(C)N1CCc2nc(C3COc4ccc(Oc5ccnc6c5CCC(=O)N6)cc4C3)[nH]c2C1 (stereo not drawn) [Compound 133, 5-[3-(5-isopropyl-3,4,6,7-tetrahydroimidazo[4,5-c]pyridin-2-yl)chroman-6-yl]oxy-3,4-dihydro-1H-1,8-naphthyridin-2-one] | – | – | – | – | – | –
9 | 0.562 µM | < 1.1 µg/mL | CCCc1ccc2[nH]c(N3CCc4ccc(Oc5ccnc6c5CCC(=O)N6)cc4C3)nc2c1 [Compound 161, 5-[[2-(5-propyl-1H-benzimidazol-2-yl)-3,4-dihydro-1H-isoquinolin-7-yl]oxy]-3,4-dihydro-1H-1,8-naphthyridin-2-one] | – | – | – | – | – | –
